Key:
Assay in all cases: IC50 for competition of protein binding to Kinobeads
Details in all cases: assay detail: Kinobeads competition in P. falciparum blood-stage lysate
[1] = molecular target: UniProt C0H4P4
[2] = molecular target: UniProt C0H4S5
[3] = molecular target: UniProt C6KSV3
[4] = molecular target: UniProt C6KT23
[5] = molecular target: UniProt C6KT56
[6] = molecular target: UniProt C6KT82
[7] = molecular target: UniProt C6KT96
[8] = molecular target: UniProt O77330
[9] = molecular target: UniProt O77361
[10] = molecular target: UniProt O96212
[11] = molecular target: UniProt Q7K6A5
Chain of UniProt Q7K6A5 (Q7K6A5 whole entry): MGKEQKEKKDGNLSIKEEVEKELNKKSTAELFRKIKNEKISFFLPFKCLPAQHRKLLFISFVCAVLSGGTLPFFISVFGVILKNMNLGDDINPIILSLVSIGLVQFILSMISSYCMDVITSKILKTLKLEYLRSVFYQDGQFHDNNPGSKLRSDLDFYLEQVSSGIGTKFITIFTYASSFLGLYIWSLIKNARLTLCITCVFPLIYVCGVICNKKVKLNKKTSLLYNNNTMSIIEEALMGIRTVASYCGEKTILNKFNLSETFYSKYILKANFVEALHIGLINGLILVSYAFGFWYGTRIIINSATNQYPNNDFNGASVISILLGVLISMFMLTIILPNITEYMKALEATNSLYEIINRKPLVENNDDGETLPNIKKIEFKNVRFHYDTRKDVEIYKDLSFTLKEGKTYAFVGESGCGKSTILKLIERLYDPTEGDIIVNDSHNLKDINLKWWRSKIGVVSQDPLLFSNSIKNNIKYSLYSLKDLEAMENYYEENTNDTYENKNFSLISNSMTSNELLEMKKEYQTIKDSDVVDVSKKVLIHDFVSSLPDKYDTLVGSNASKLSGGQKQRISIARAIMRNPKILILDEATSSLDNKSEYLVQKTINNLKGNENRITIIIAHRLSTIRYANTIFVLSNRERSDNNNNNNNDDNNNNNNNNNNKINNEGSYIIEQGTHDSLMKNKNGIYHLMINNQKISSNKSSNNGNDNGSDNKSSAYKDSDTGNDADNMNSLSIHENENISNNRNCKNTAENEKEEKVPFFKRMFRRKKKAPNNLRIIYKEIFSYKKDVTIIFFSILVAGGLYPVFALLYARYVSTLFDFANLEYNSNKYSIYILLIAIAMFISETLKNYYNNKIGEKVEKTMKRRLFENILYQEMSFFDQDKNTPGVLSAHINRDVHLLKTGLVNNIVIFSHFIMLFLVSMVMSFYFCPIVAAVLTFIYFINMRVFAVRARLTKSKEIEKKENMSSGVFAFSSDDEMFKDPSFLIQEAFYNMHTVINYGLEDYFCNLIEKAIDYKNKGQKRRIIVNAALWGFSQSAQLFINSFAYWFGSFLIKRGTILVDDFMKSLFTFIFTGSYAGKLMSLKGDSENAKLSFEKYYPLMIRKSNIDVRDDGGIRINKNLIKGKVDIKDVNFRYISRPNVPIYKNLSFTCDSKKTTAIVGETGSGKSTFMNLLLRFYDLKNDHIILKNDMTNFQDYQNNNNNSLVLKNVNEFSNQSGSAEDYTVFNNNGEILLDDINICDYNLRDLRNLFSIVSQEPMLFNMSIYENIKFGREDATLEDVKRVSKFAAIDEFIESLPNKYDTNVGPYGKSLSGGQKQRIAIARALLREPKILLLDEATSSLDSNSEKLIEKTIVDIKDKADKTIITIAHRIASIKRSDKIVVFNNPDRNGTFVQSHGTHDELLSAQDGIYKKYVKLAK

[12] = molecular target: UniProt Q7KQL3
Chain of UniProt Q7KQL3 (Q7KQL3 whole entry): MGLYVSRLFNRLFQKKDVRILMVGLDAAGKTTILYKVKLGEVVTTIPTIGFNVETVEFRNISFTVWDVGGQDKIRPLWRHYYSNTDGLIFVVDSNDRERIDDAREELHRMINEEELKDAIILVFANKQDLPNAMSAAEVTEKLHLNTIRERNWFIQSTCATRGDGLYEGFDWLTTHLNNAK

[13] = molecular target: UniProt Q8I1P3
[14] = molecular target: UniProt Q8I1S0
[15] = molecular target: UniProt Q8I298
[16] = molecular target: UniProt Q8I2J3
[17] = molecular target: UniProt Q8I395
Chain of UniProt Q8I395 (Q8I395 whole entry): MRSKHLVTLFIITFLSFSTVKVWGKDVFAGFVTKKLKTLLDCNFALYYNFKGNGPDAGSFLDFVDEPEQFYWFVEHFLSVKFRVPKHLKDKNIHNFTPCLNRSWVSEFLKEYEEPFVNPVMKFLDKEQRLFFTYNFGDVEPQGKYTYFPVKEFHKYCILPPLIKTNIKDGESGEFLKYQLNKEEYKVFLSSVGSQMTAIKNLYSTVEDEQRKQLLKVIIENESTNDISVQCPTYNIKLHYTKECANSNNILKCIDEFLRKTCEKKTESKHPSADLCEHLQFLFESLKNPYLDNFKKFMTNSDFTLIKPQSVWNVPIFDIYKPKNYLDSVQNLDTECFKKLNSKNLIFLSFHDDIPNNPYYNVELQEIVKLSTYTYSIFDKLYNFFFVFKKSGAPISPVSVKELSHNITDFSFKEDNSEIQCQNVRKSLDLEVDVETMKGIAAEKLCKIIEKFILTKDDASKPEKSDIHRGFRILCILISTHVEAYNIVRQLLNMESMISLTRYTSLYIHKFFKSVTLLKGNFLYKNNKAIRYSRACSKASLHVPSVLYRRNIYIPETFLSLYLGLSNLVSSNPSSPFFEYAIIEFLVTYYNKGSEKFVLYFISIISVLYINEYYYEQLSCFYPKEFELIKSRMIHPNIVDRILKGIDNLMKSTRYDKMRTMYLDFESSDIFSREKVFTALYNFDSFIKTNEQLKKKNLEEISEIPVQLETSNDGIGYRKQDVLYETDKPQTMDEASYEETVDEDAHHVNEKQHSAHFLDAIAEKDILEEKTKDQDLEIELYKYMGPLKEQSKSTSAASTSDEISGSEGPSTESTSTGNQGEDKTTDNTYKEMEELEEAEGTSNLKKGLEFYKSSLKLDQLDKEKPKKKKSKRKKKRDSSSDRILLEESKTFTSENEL

[18] = molecular target: UniProt Q8I442
[19] = molecular target: UniProt Q8I445
[20] = molecular target: UniProt Q8I447
[21] = molecular target: UniProt Q8I4W4
[22] = molecular target: UniProt Q8I4Z2
[23] = molecular target: UniProt Q8I5A4
[24] = molecular target: UniProt Q8I5B6
[25] = molecular target: UniProt Q8I5D5
[26] = molecular target: UniProt Q8I5R7
Chain of UniProt Q8I5R7 (Q8I5R7 whole entry): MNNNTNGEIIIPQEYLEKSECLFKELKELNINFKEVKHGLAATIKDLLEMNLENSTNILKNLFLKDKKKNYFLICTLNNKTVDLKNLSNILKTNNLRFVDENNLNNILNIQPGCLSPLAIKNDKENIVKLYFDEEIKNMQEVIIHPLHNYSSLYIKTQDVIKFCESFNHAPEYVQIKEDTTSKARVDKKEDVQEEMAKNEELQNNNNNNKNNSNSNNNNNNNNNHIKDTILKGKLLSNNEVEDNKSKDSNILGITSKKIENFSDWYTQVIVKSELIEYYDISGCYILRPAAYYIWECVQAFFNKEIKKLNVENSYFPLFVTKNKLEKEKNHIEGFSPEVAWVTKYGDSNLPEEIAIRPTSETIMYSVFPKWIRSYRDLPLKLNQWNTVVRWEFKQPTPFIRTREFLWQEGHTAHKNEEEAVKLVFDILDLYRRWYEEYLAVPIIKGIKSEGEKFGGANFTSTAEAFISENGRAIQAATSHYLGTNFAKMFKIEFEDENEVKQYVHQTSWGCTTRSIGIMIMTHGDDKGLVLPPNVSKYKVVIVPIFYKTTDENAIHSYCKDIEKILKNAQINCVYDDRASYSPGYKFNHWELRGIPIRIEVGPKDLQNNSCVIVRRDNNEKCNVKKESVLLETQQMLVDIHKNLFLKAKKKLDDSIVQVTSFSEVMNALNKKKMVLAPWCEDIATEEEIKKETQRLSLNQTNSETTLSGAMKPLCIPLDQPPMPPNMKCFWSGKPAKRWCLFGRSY

[27] = molecular target: UniProt Q8I5Y9
[28] = molecular target: UniProt Q8I635
[29] = molecular target: UniProt Q8IAW0
[30] = molecular target: UniProt Q8IAX8
Chain of UniProt Q8IAX8 (Q8IAX8 whole entry): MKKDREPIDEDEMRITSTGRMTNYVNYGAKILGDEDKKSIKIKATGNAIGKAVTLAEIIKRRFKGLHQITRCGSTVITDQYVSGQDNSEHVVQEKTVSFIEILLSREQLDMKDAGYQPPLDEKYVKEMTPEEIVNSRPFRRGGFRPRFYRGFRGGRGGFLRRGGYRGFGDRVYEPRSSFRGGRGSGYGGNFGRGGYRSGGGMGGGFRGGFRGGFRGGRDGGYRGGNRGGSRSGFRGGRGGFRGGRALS

[31] = molecular target: UniProt Q8IBA0
[32] = molecular target: UniProt Q8IC06
[33] = molecular target: UniProt Q8IDR5
[34] = molecular target: UniProt Q8IE41
[35] = molecular target: UniProt Q8IE43
[36] = molecular target: UniProt Q8IFP2
[37] = molecular target: UniProt Q8II73
[38] = molecular target: UniProt Q8IIJ4
[39] = molecular target: UniProt Q8IIM5
[40] = molecular target: UniProt Q8IIR0
[41] = molecular target: UniProt Q8IIS9
[42] = molecular target: UniProt Q8IIV1
[43] = molecular target: UniProt Q8IJA4
[44] = molecular target: UniProt Q8IJS1
[45] = molecular target: UniProt Q8ILC1
Chain of UniProt Q8ILC1 (Q8ILC1 whole entry): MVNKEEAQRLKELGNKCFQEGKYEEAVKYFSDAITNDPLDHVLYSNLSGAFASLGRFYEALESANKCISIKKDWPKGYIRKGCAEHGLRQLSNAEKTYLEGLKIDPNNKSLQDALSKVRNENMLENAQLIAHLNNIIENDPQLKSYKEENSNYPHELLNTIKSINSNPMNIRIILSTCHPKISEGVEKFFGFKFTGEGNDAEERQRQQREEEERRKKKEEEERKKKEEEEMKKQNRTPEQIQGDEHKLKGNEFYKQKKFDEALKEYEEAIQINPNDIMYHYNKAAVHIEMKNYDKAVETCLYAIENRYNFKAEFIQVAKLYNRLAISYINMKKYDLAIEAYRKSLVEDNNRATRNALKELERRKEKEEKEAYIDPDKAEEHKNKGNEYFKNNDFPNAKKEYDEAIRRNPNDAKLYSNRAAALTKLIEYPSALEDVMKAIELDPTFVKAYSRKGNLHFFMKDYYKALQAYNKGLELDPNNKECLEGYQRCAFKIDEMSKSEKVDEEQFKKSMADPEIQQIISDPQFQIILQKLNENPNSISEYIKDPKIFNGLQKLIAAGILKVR

[46] = molecular target: UniProt Q8ILF0
[47] = molecular target: UniProt Q8ILL2
[48] = molecular target: UniProt Q8ILL3
[49] = molecular target: UniProt Q8ILT5
Chain of UniProt Q8ILT5 (Q8ILT5 whole entry): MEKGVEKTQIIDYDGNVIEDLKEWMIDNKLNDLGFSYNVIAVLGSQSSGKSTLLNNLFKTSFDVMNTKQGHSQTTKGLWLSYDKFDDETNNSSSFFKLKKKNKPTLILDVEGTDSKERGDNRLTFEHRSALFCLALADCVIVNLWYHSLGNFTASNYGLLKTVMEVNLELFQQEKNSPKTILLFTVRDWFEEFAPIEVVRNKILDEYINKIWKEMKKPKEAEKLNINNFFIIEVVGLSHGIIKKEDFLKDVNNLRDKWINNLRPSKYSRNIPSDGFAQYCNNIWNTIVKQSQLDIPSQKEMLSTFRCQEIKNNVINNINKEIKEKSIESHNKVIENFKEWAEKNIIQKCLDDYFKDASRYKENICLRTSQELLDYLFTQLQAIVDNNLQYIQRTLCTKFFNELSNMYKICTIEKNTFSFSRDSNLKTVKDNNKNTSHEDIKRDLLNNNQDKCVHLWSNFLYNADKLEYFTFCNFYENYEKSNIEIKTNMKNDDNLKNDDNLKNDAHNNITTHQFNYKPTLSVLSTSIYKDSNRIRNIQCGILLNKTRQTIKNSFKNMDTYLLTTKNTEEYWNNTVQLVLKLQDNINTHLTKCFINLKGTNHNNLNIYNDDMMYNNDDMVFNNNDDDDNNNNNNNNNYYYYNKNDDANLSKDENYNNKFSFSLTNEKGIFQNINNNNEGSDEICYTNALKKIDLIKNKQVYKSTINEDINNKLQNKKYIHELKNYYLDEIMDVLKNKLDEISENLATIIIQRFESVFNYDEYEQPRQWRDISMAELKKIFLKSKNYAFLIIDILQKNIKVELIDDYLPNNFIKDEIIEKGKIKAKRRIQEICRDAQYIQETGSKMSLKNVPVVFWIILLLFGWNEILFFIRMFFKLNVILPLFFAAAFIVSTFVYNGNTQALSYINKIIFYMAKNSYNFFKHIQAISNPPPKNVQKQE

[50] = molecular target: UniProt Q8IM26
[51] = molecular target: UniProt Q9TY95
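Also: native unpurified kinases from lysate captured on beads bearing immobilized kinase inhibitors, with bead-bound kinases quantified by mass spectrometry across compound doses.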

For O=c1[nH]c2ccc(Cl)cc2c(NC2CN3CCC2CC3)c1-c1nc2ccccc2[nH]1 (stereo unspecified) [CHIR-124], the IC50 [1] was > 20 µM, the IC50 [2] was > 20 µM and the IC50 [3] was > 20 µM. The IC50 [4] was > 20 µM, the IC50 [5] was > 20 µM and the IC50 [6] was > 20 µM. For the same compound, the IC50 [7] was > 20 µM, the IC50 [8] was > 20 µM and the IC50 [9] was > 20 µM. The IC50 [10] was > 20 µM, the IC50 [11] was > 20 µM and the IC50 [12] was > 20 µM. For the same compound, the IC50 [13] was > 20 µM, the IC50 [14] was > 20 µM and the IC50 [15] was > 20 µM. For the same compound, the IC50 [16] was > 20 µM, the IC50 [17] was > 20 µM and the IC50 [18] was 9.2 µM. For the same compound, the IC50 [19] was > 20 µM, the IC50 [20] was > 20 µM and the IC50 [21] was > 20 µM. The IC50 [22] was > 20 µM, the IC50 [23] was > 20 µM and the IC50 [24] was > 20 µM. For the same compound, the IC50 [25] was > 20 µM, the IC50 [26] was > 20 µM and the IC50 [27] was > 20 µM. For the same compound, the IC50 [28] was > 20 µM, the IC50 [29] was > 20 µM and the IC50 [30] was > 20 µM. The IC50 [31] was > 20 µM, the IC50 [32] was > 20 µM and the IC50 [33] was > 20 µM. For the same compound, the IC50 [34] was 0.375 µM, the IC50 [35] was > 20 µM and the IC50 [36] was > 20 µM. For the same compound, the IC50 [37] was > 20 µM, the IC50 [38] was > 20 µM and the IC50 [39] was > 20 µM. The IC50 [40] was > 20 µM, the IC50 [41] was > 20 µM and the IC50 [42] was > 20 µM. For the same compound, the IC50 [43] was > 20 µM, the IC50 [44] was > 20 µM and the IC50 [45] was > 20 µM. For the same compound, the IC50 [46] was > 20 µM, the IC50 [47] was > 20 µM and the IC50 [48] was > 20 µM. For the same compound, the IC50 [49] was > 20 µM, the IC50 [50] was > 20 µM and the IC50 [51] was > 20 µM.

From the supplement of paper PMC13386468
